Measurements: patent US20250305982A1, “DEVICE AND METHOD FOR THE DETECTION OF BIOMARKERS ASSOCIATED WITH NEURODEGENERATIVE DISEASES” (CONSEJO NACIONAL DE INVESTIGACIONES CIENTÍFICAS Y TÉCNICAS …, priority 2022, published 2025)
Values belong to the molecule of their own block, whether it stands above or below them.

How the values were obtained:
amyloid aggregates = details: González-Lizárraga (2017), Medina (2021); cited from earlier work
AS fibers = molecular target: T1, AS fibers (Homo sapiens, UniProt P37840); experiment: Cyclic voltammetry with gold biosensors modified with Doxy-5; format: binding
T1 construct: made in house; host or cells: E. coli BL21
Description: A comparative study for different crosslinking agents for the immobilization of Doxy-5 on gold conductive surfaces was performed. 3-mercaptopropionic acid (MPA), which is able to form self-assembled monolayers (SAM) on the substrate thus facilitating its functionalization, was used. Gold was chosen because it is inert for the molecule of interest. Additionally, the use of other agents such as 1-ethyl-3-(3-dimethylaminopropyl) carbodiimide hydrochloride (EDC) and N-hydroxysuccinimide (NHS), either for generating or activating present moieties, is necessary for the formation of covalent bonds with Doxy-5. Concentrations and incubation times were optimized in each modification stage of the gold surface.
Cyclic voltammetry (CV) measurements were first carried out to characterize each of the immobilization stages on a gold substrate. Said measurements were carried out in a cell with tripolar configuration using a platinum electrode as counter electrode, a silver/silver chloride reference electrode, and the modified gold electrodes as working electrodes. The electrolyte [Fe(CN)6]K4, containing the Fe^3+/Fe^2+ redox pair, was used in every characterization assay. […] CV and EIS measurements were also performed in each immobilization stage using phosphate buffer (PBS) at pH 7.4 (FIG. 1). […]

fibrillar AS = molecular target: T2, fibrillar AS (Homo sapiens, UniProt P37840); experiment: Sandwich immunoassay, Doxy-5 adsorbed on polystyrene microplates; format: binding
T2 construct: made in house; host or cells: E. coli BL21
Description: The design is based on an immunoassay with a conventional sandwich system involving the capture of fibrillar species of AS by Doxy-5, followed by detection with two antibodies: an anti-human AS antibody, and an antibody conjugated to a peroxidase. Briefly, the compound of formula (II) is incubated in polystyrene microplates wherein it is adsorbed. After several rinses, to eliminate any non-adsorbed molecules, the system is incubated with a primary anti-human AS rabbit antibody. After rinsing, the system is then incubated with a secondary anti-rabbit antibody conjugated to peroxidase. The conjugated antibody reacts specifically with the primary antibodies which are bound to the immunocaptured AS. […] After incubating, a blue color develops, whose intensity depends on the concentration and the affinity of Doxy-5 to the AS species. The enzymatic reaction is stopped by the addition of sulfuric acid, which produces a color shift towards yellow which is spectrometrically quantifiable at 450 nm.
(§1) The 96-well polystyrene plate was sensitized by incubation overnight a 4° C. and protected from light with 20 μg/mL of the compound of formula (II) in 20 mM sodium acetate pH 5 (50 μL/well). The plate was rinsed with PBST (PBS 10 mM pH 7.4+Tween-80 0.01%) and blocked with 150 μL/well of a 0.1% lysozyme solution in PBS 10 mM pH 7.4 during 1 h at 37° C. After rinsing, 50 μL of the samples with the analytes of interest prepared in 10 mM PBS pH 7.4 were added to each well, and the plate was incubated at 37° C. for 2 h. […] Immediately thereafter, the developed absorbance is measured with a TECAN Spark microplate reader.
The focus of the immunoassay takes advantage of the generation of a colored compound by action of the peroxidase on the substrate (TMB), which is proportional to the concentration of the AS analytes captured by Doxy-5. The absorbance readings at 450 nm were acquired with a TECAN Spark microplate reader. […]

Tau aggregates (PFF) = experiment: Immunoassay, Doxy-5 bound to BSA through glutaraldehyde on polystyrene microplate; format: binding; details: Taum 100 ng/ml, PFF 1/10000 dilution; Doxy-5 40 μg/ml; FIG. 6
Description: The sensitization of the wells was carried out as follows: first, the binding sites of the microplate were blocked with albumin. Afterwards, compound of formula (II) was covalently linked to albumin by using glutaraldehyde as the linker.
For this purpose, a 96-well polystyrene microplate was incubated with 150 μL/well of 1% bovine serum albumin (BSA) overnight at 4° C. in a humid chamber. Then, after three cycles of washing with PBST, 50 μL/well of glutaraldehyde at different concentrations (0.1%, 0.5% and 1%) were added to the wells and the plate was kept during specified times (either 10 minutes for every concentration, or 5 minutes for 0.5% and 1%) under a hood. Wells were then washed three times with PBS, and 50 μL/well of Doxy-5 (40 μg/ml) were added. The plate was then incubated at 37° C. for 30 minutes, protected from light. Afterwards, the wells were washed again with PBST, and 50 μL/well of 1M TRIS was added as a glutaraldehyde-inactivating agent. The microplate was then incubated at 37° C. for 30 minutes. […] To stop the reaction, 25 μL/well of 2N H2SO4 were added, and the microplate was immediately read on a microplate reader (Tecan Spark, Austria) at the wavelength of 450 nm.

AS PFF = molecular target: T3, AS PFF (Homo sapiens, UniProt P37840); experiment: Comparative binding of immobilized doxycycline hyclate and Doxy-5 to AS aggregates; details: AS aggregates 20 ng/ml; polystyrene microplates; FIG. 8
T3 construct: made in house; host or cells: E. coli BL21
Description: as §1, with “h. The plate is then rinsed again, and 50 μL of the anti-AS antibody diluted to 1 μg/ml in 10% bovine fetal serum (BFS in 10 mM PBS pH 7.4) were added to each well, after which the plate was incubated 1.5 h. The plate was rinsed once more and incubated at 37° C. during 1 h with 50 μL/well of the antibody conjugated with peroxidase diluted to 1 μg/ml in 10% bovine fetal serum.” for “h.”
Both doxycycline hyclate and Doxy-5 were immobilized on polystyrene microplates and contacted with AS aggregates (PPF) according to the protocol described in Example 4, using a concentration for the AS aggregates of 20 ng/ml. The binding of the AS aggregates to each molecule was determined as described in Example 4 as well.

Molecule: Nc1c(/N=N/c2ccc(-c3ccc(/N=N/c4cc(S(=O)(=O)O)c5ccccc5c4N)cc3)cc2)cc(S(=O)(=O)O)c2ccccc12 [Congo red]
binding to amyloid aggregates structures (amyloid aggregates): strong and specific binding

electrochemical response of the sensor in the presence of the AS fibers (oxidation peak of voltammogram) (AS fibers; CV, -0.6 V to 0.6 V, 30 mV/seg, Doxy-5 on MPA-SAM gold electrode): clear electrochemical response | interference of the AS monomer in CV response (AS fibers; monomer up to 100 ng/ml, response lower than fibers at 0.1 ng/mL): non-existing interference of the monomer | cross-reaction with native (monomeric) AS (fibrillar AS; native AS as negative control): no cross-reaction | signal for binding to AS PFF (AS PFF): significantly higher
Molecule: C[C@H]1c2ccc(N)c(O)c2C(=O)C2=C(O)[C@]3(O)C(=O)C(C(N)=O)=C(O)CC3[C@@H](O)C21 (stereo partly shown) [Doxy-5, 9-amino-4-dedimethylamino doxycycline]
AS concentrations showing the best differential reactivity between aggregated and monomeric species (fibrillar AS; wells sensitized with Doxy-5): over 30 ng/mL | affinity towards fibrillar AS (fibrillar AS; wells sensitized with Doxy-5, absorbance 450 nm): nanomolar affinity | discrimination between Tau monomer (Taum) and pre-formed fibrils (PFF), signal at 450 nm (Tau aggregates (PFF)): higher signal for PFF compared with Taum and PBS

Molecule: Cc1ccc2c(c1)sc(-c1ccc(N(C)C)cc1)[n+]2C.[Cl-] [Thioflavin T]
binding to amyloid aggregates structures (amyloid aggregates): strong and specific binding

signal for binding to AS PFF (AS PFF): positive signal
Molecule: doxycycline hyclate [reference compound]
